From US20250230193A1, “CYCLIC COMPOUND HAVING SELECTIVE KRAS INHIBITORY EFFECT ON HRAS AND NRAS” (CHUGAI SEIYAKU KABUSHIKI KAISHA, priority 2022, published 2025)
Where a SMILES comes first, the peptide text is derived from it. Bridges are numbered along the chain shown (N, C = ends). [ ]: non-standard residue; d: D form. The star is where a group is joined. hPhe(3-Cl-4-CF3) = N[C@@H](CCc1ccc(C(F)(F)F)c(Cl)c1)C(=O)O; NPrPhe(4-CF3) = CCCN[C@@H](Cc1ccc(C(F)(F)F)cc1)C(=O)O; NMeGly(cPent) = CN[C@H](C(=O)O)C1CCCC1; Pro(4,4-F2) = O=C(O)[C@@H]1CC(F)(F)CN1; NMeD = CN[C@@H](CC(=O)O)C(=O)O; NMeL = CN[C@@H](CC(C)C)C(=O)O; NMeAbu = CC[C@H](NC)C(=O)O; Morpholide = C1CN(*)CCO1; NMeA = CN[C@@H](C)C(=O)O; Ac5c = NC1(C(=O)O)CCCC1; Aze = O=C(O)[C@@H]1CCN1; Ac4c = NC1(C(=O)O)CCC1; Sar = CNCC(=O)O

How the values were obtained:
[1] = biological target: GDP-bound HRAS wild-type protein (Homo sapiens, UniProt P01112); experiment: Binding to HRAS by surface plasmon resonance (SPR), Single Cycle Kinetics; details: KD ratio HRAS/KRAS, SPR
Sequence of GDP-bound HRAS wild-type protein (P01112 whole entry): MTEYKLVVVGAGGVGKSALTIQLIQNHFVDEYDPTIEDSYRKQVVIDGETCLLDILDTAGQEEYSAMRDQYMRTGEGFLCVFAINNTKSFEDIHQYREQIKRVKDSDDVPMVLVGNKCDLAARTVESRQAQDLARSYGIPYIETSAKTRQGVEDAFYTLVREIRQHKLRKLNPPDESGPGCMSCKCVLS

[2] = biological target: GDP-bound NRAS wild-type protein (Homo sapiens, UniProt P01111); experiment: Binding to NRAS by surface plasmon resonance (SPR), Single Cycle Kinetics; details: KD ratio NRAS/KRAS, SPR
Sequence of GDP-bound NRAS wild-type protein (P01111 whole entry): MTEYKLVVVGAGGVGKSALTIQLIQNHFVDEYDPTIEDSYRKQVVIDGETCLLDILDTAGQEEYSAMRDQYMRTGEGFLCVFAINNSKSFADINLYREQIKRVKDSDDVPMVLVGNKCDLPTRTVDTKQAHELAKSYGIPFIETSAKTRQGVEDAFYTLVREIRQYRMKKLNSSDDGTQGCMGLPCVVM

| Compound | HRAS/KRAS (ratio of KD for GDP-bound HRAS wild-type to KD for KRAS) [1] | NRAS/KRAS (ratio of KD for GDP-bound NRAS wild-type to KD for KRAS) [2] |
| --- | --- | --- |
| CCCN1C(=O)[C@@H]2CCN2C(=O)[C@H](C)N(C)C(=O)[C@H]([C@@H](C)CC)NC(=O)[C@H](CC)N(C)C(=O)C[C@@H](C(=O)N2CCOCC2)N(C)C(=O)[C@H](C2CCCC2)N(C)C(=O)C2(CCCC2)NC(=O)[C@@H]2CCCN2C(=O)[C@H](CCc2ccc(C(F)(F)F)c(Cl)c2)NC(=O)CN(C)C(=O)[C@@H]1Cc1ccc(C(F)(F)F)cc1 [PP0194] ([NMeAbu]I[NMeA][Aze][NPrPhe(4-CF3)][Sar][hPhe(3-Cl-4-CF3)]P[Ac5c][NMeGly(cPent)][NMeD]-Morpholide; lactam N-11) | B (a compound having 3 or more and less than 10 is denoted as B) | C (A compound having a KD ratio of 0.1 or more and less than 3 is denoted as C) |
| CCCN1C(=O)CN(C)C(=O)CN(C)C(=O)[C@H]([C@@H](C)CC)NC(=O)[C@H](CC(C)C)N(C)C(=O)C[C@@H](C(=O)N2CCOCC2)N(C)C(=O)[C@H](C2CCCC2)N(C)C(=O)C2(CCCC2)NC(=O)[C@@H]2CC(F)(F)CN2C(=O)[C@H](CCc2ccc(C(F)(F)F)c(Cl)c2)NC(=O)CN(C)C(=O)[C@@H]1Cc1ccc(C(F)(F)F)cc1 [PP0195] ([NMeL]I[Sar][Sar][NPrPhe(4-CF3)][Sar][hPhe(3-Cl-4-CF3)][Pro(4,4-F2)][Ac5c][NMeGly(cPent)][NMeD]-Morpholide; lactam N-11) | C (A compound having a KD ratio of 0.1 or more and less than 3 is denoted as C) | B (a compound having 3 or more and less than 10 is denoted as B) |
| CCCN1C(=O)[C@@H]2CCN2C(=O)[C@H](C)N(C)C(=O)[C@H]([C@@H](C)CC)NC(=O)[C@H](CC(C)C)N(C)C(=O)C[C@@H](C(=O)N2CCOCC2)N(C)C(=O)[C@H](C2CCCC2)N(C)C(=O)C2(CCCC2)NC(=O)[C@@H]2CC(F)(F)CN2C(=O)[C@H](CCc2ccc(C(F)(F)F)c(Cl)c2)NC(=O)CN(C)C(=O)[C@@H]1Cc1ccc(C(F)(F)F)cc1 [PP0196] ([NMeL]I[NMeA][Aze][NPrPhe(4-CF3)][Sar][hPhe(3-Cl-4-CF3)][Pro(4,4-F2)][Ac5c][NMeGly(cPent)][NMeD]-Morpholide; lactam N-11) | C (A compound having a KD ratio of 0.1 or more and less than 3 is denoted as C) | C (A compound having a KD ratio of 0.1 or more and less than 3 is denoted as C) |
| CCCN1C(=O)CN(C)C(=O)CN(C)C(=O)[C@H]([C@@H](C)CC)NC(=O)[C@H](CC(C)C)N(C)C(=O)C[C@@H](C(=O)N2CCOCC2)N(C)C(=O)[C@H](C2CCCC2)N(C)C(=O)C2(CCC2)NC(=O)[C@@H]2CCCN2C(=O)[C@H](CCc2ccc(C(F)(F)F)c(Cl)c2)NC(=O)CN(C)C(=O)[C@@H]1Cc1ccc(C(F)(F)F)cc1 [PP0197] ([NMeL]I[Sar][Sar][NPrPhe(4-CF3)][Sar][hPhe(3-Cl-4-CF3)]P[Ac4c][NMeGly(cPent)][NMeD]-Morpholide; lactam N-11) | C (A compound having a KD ratio of 0.1 or more and less than 3 is denoted as C) | B (a compound having 3 or more and less than 10 is denoted as B) |
| CCCN1C(=O)[C@@H]2CCN2C(=O)[C@H](C)N(C)C(=O)[C@H]([C@@H](C)CC)NC(=O)[C@H](CC(C)C)N(C)C(=O)C[C@@H](C(=O)N2CCOCC2)N(C)C(=O)[C@H](C2CCCC2)N(C)C(=O)C2(CCC2)NC(=O)[C@@H]2CCCN2C(=O)[C@H](CCc2ccc(C(F)(F)F)c(Cl)c2)NC(=O)CN(C)C(=O)[C@@H]1Cc1ccc(C(F)(F)F)cc1 [PP0198] ([NMeL]I[NMeA][Aze][NPrPhe(4-CF3)][Sar][hPhe(3-Cl-4-CF3)]P[Ac4c][NMeGly(cPent)][NMeD]-Morpholide; lactam N-11) | B (a compound having 3 or more and less than 10 is denoted as B) | C (A compound having a KD ratio of 0.1 or more and less than 3 is denoted as C) |
